Data as given in BindingDB's records for doi:10.7270/Q2Q52N82 (The Scripps Research Institute Molecular Screening Center, 2012).

target: ADP-ribosylation factor GTPase-activating protein 1 (Rattus norvegicus, UniProt Q62848)
Sequence (Q62848 whole entry): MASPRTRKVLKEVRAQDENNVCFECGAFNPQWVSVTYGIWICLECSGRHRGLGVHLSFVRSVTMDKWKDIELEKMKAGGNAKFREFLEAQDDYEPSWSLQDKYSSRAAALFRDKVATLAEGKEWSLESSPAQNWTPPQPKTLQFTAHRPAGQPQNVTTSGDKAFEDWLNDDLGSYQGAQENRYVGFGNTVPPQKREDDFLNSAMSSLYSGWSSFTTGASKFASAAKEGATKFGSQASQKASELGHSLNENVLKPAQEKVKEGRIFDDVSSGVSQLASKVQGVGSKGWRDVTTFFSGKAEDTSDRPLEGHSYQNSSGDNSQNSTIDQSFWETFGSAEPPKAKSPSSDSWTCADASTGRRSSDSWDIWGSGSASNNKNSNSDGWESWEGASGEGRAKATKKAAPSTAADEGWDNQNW

`Cc1ccc2nc(SCC(=O)c3ccc(Cl)cc3)nc(=O)n2c1` and `Cc1ccc2nc(SCC(=O)Nc3cccc(Cl)c3)nc(=O)n2c1` [MLS001234985] cannot be ordered by IC50: greater than 165 µM for the first, greater than 18.3 µM for the second.

First: O=NCc1ccc2noc(-c3ccc(Cl)cc3)c2c1 [SMR000549694]
Second: O=C(Nc1ccc(CN2CCOCC2)cc1)c1ccc(-c2cc(Cl)ccc2Cl)o1 [5-(2,5-dichlorophenyl)-N-[4-(4-morpholinylmethyl)phenyl]-2-furamide]
The IC50 of the first is lower: 50.7 µM for the first, greater than 165 µM for the second.

`COCC(C)n1c(C)cc(C(=O)CN2c3cccc4cccc(c34)S2(=O)=O)c1C` (stereo not given) [MLS002169376] and `CC(=O)c1cccc(NC(=O)c2cccc3c(-c4cnn(C)c4)coc23)c1` [MLS003120506] cannot be ordered by IC50: greater than 165 µM for the first, greater than 165 µM for the second.

`CCC(/C=C1\Sc2ccc(OC)cc2N1CCO)=C\c1sc2ccc(OC)cc2[n+]1CCO` and `C=CCNc1nc(NCc2cccc(OC)c2)c2sc(-c3ccccc3)cc2n1` [N4-[(3-methoxyphenyl)methyl]-6-phenyl-N2-prop-2-enyl-thieno[3,2-d]pyrimidine-2,4-diamine] cannot be ordered by IC50: greater than 165 µM for the first, greater than 165 µM for the second.

`c1ccc(-c2cc(-c3nnc4sc(-c5ccccn5)nn34)[nH]n2)cc1` [3-(3-phenyl-1H-pyrazol-5-yl)-6-(2-pyridinyl)-[1,2,4]triazolo[3,4-b][1,3,4]thiadiazole] and `COc1ccc(-c2cc3ccccc3oc2=O)cc1NC(=O)c1cccnc1` [N-[2-methoxy-5-(2-oxidanylidenechromen-3-yl)phenyl]pyridine-3-carboxamide] cannot be ordered by IC50: greater than 165 µM for the first, greater than 165 µM for the second.

`CC1CC(C)CN(C(=O)COC(=O)c2cc3ccccc3cc2O)C1` (stereo not given) [[2-(3,5-dimethylpiperidin-1-yl)-2-oxidanylidene-ethyl] 3-oxidanylnaphthalene-2-carboxylate] and `CCOc1ccc2oc(C(=O)OCC(=O)N3CC(C)OC(C)C3)c(C)c2c1` (stereo not given) [[2-(2,6-dimethylmorpholin-4-yl)-2-oxoethyl] 5-ethoxy-3-methyl-1-benzofuran-2-carboxylate] cannot be ordered by IC50: greater than 165 µM for the first, greater than 165 µM for the second.

`C=c1cc2[nH]c(=O)c(=Cc3ccc(-c4cccc(Cl)c4)o3)c(=N)n2o1` [(6Z)-6-[[5-(3-chlorophenyl)-2-furanyl]methylidene]-7-imino-2-methyl-5-isoxazolo[2,3-a]pyrimidinone] and `CN(C)CCNC(=O)c1ccc(-c2cn3c(-c4ccc(Oc5ccccc5)cc4)cnc3cn2)cc1` [MLS003123272] cannot be ordered by IC50: greater than 2.03 µM for the first, greater than 18.3 µM for the second.

For `CC(C)=CCC/C(C)=C/Cc1c(O)ccc(C(=O)/C=C/c2ccc(O)cc2)c1O`, the IC50 was greater than 165 µM.
